The numbers were not newly measured in patent US20090191287A1, “Mitigation of Inflammation-Related Injuries” (priority 2008, published 2009), which cites them from elsewhere.

Data set [1] concerns myocardium at risk. The following applies: allopurinol-pretreated dogs, left anterior descending artery ligated; control group 23%.
For data set [2], the system named is heart infarct. Conditions: dogs pretreated with allopurinol; control dogs 40%.
The subject of data set [3] is high-risk coronary surgery patients. Conditions: high-risk coronary surgery patients pretreated before operating; placebo 17%.

As to `Oc1ncnc2[nH]ncc12` [allopurinol], in data set [1], the “myocardium at risk destroyed (myocardial necrosis)” value was 9%. The heart infarct size in data set [2] is 22%. Besides, the mortality rate in data set [3] was 4%.
